Reference: patent publication US20250257054A1, “SALT FORMS OF A 4H-PYRAN-4-ONE STRUCTURED CYP11 A1 INHIBITOR” (ORION CORPORATION, priority 2021, published 2025)
Where a name gives a salt, the structure may show the parent alone.

Assays:
Type in all cases: physicochemical
[1] = Short-term physical stability of salts at 40° C./75% RH for 2 weeks (XRPD); conditions: determined by XRPD
Description: (§1) XRPD measurements were performed with the X-ray powder diffractometer Bruker D8 Advance at room temperature, using a copper filled X-ray tube (40 kV×40 mA) as the X-ray source, CuKα (λ=1.5418 Å), a 0.6 mm divergence slit, 2.5° Soller slits on both the primary and secondary beams and the 1-dimensional LynxEye detector (with aperture angle of 2.91593°). Data collection was done in the range of 3.8-33° 2θ with 0.02° increments, at a scan speed of 0.3°/s.
Short-term physical stability of various salts was studied by exposure at 40° C./75% RH for 2 weeks followed by measurement by XRPD.

[2] = Slurry stability of crystalline forms of p-toluenesulfonic acid salt in different water activity conditions (XRPD); conditions: for Resulting form 5° C. / Resulting form 25° C. / Resulting form 40° C.: slurry of Form 3 stirred 2-3 weeks; for Water activity in which the crystalline form is favoured: slurry experiments, values stated as 'about'
Description: as §1
Stability of the crystalline forms of p-toluenesulfonic acid salt in different water activity conditions was studied in slurry experiments where crystalline form 3 was stirred for 2-3 weeks at 5° C., 25° C. and 40° C. in mixtures of ethanol:water, acetonitrile (ACN):water, methanol: water and methanol alone. 0.5 ml of solvent was added to 25 mg of each sample. The resulting crystalline form was determined by XRPD.

[3] = Crystalline transformation of form 2 on drying; conditions: higher drying temperatures (than about 20-60° C., under reduced pressure)
Description: In a preferred method, crystalline form 2 is prepared in high polymorphic purity and in consistent manner by first dissolving compound (I) in a mixture of acetonitrile and water, where the amount of water is from about 5% to about 15%, preferably from 6% to 12%, per volume of the mixture. The amount of compound (I) is suitably from about 5 g to about 15 g, preferably from about 9 g to 13 g, for example, about 11 g, per 100 ml of the solvent. If desired, activated carbon, celite and/or triamine metal scavenger may also be added. The mixture may be heated, for example, to a temperature of about 50-80° C., more specifically to about 70-80° C. The mixture can be thereafter filtered. To the filtrate is then added p-toluenesulfonic acid monohydrate, for example, in about equivalent molar amount, under heating at a temperature of about 50-80° C., more specifically at about 70° C. The mixture may then be cooled to about 60° C. and seeded, if desired. The mixture can then be stirred in this temperature for about 1 h, followed by cooling, for example to about 0-20° C., more specifically to about 5° C., to precipitate the product. The crystalline form 2 can be washed, for example, with water, and dried at about 20-60° C., preferably at about 25-35° C., for example at about 30° C., under reduced pressure. […]

[4] = ACN:water 92.1:7.9, water activity 0.81
[5] = ACN:water 96.3:3.7, water activity 0.58
[6] = EtOH:water 30:70, water activity >0.9
[7] = EtOH:water 83:17, water activity 0.64
[8] = EtOH:water 92.8:7.2, water activity 0.40
[9] = EtOH:water 96.7:3.3, water activity 0.22
[10] = MeOH:water 36:64, water activity 0.83
[11] = MeOH:water 77:23, water activity 0.52
[12] = MeOH:water 90:10, water activity 0.30
[13] = MeOH:water 95.3:4.7, water activity 0.16

Structure (SMILES): CS(=O)(=O)N1CCC(COc2coc(CN3Cc4ccc(C(F)(F)F)cc4C3)cc2=O)CC1 [2-Naphthalenesulphonic acid salt (form 1)] [5-((1-(methyl-sulfonyl)piperidin-4-yl)methoxy)-2-((5-(trifluoromethyl)isoindolin-2-yl)methyl)-4H-pyran-4-one]
- Form after 2 weeks [1]: No change

Structure (SMILES): CS(=O)(=O)N1CCC(COc2coc(CN3Cc4ccc(C(F)(F)F)cc4C3)cc2=O)CC1 [Benzenesulfonic acid salt (form 1), 5-((1-(methyl-sulfonyl)piperidin-4-yl)methoxy)-2-((5-(trifluoromethyl)isoindolin-2-yl)methyl)-4H-pyran-4-one]
- Form after 2 weeks [1]: No change

Structure (SMILES): CS(=O)(=O)N1CCC(COc2coc(CN3Cc4ccc(C(F)(F)F)cc4C3)cc2=O)CC1 [Form 3, 5-((1-(methylsulfonyl)-piperidin-4-yl)methoxy)-2-((5-(trifluoromethyl)isoindolin-2-yl)methyl)-4H-pyran-4-one]
- Stability of the crystalline form in the slurry conditions ([2]; slurry in solvent:water mixtures and methanol, 5-40° C., 2-3 weeks): unstable
- Resulting form 5° C. [2, 4]: Form 2
- Resulting form 25° C. [2, 4]: Form 2
- Resulting form 40° C. [2, 4]: Form 2
- Resulting form 5° C. [2, 5]: Form 2
- Resulting form 25° C. [2, 5]: Form 2
- Resulting form 40° C. [2, 5]: Form 2
- Resulting form 5° C. [2, 6]: Form 2
- Resulting form 25° C. [2, 6]: Form 2
- Resulting form 40° C. [2, 6]: Form 2
- Resulting form 5° C. [2, 7]: Form 2
- Resulting form 25° C. [2, 7]: Form 2
- Resulting form 40° C. [2, 7]: Form 2
- Resulting form 5° C. [2, 8]: Form 1
- Resulting form 25° C. [2, 8]: Form 1
- Resulting form 40° C. [2, 8]: Form 1
- Resulting form 5° C. [2, 9]: Form 1
- Resulting form 25° C. [2, 9]: Form 1
- Resulting form 40° C. [2, 9]: Form 1
- Resulting form 5° C. ([2]; MeOH alone): Form 1
- Resulting form 25° C. ([2]; MeOH alone): Form 1
- Resulting form 40° C. ([2]; MeOH alone): Form 1
- Resulting form 5° C. [2, 10]: Form 2
- Resulting form 25° C. [2, 10]: Form 2
- Resulting form 40° C. [2, 10]: Form 2
- Resulting form 5° C. [2, 11]: Form 2
- Resulting form 25° C. [2, 11]: Form 2
- Resulting form 40° C. [2, 11]: Form 1
- Resulting form 5° C. [2, 12]: Form 1
- Resulting form 25° C. [2, 12]: Form 1
- Resulting form 40° C. [2, 12]: Form 1
- Resulting form 5° C. [2, 13]: Form 1
- Resulting form 25° C. [2, 13]: Form 1
- Resulting form 40° C. [2, 13]: Form 1

Structure (SMILES): CS(=O)(=O)N1CCC(COc2coc(CN3Cc4ccc(C(F)(F)F)cc4C3)cc2=O)CC1 [Hydrobromic acid salt (form 1), 5-((1-(methyl-sulfonyl)piperidin-4-yl)methoxy)-2-((5-(trifluoromethyl)isoindolin-2-yl)methyl)-4H-pyran-4-one]
- Form after 2 weeks [1]: No change

Structure (SMILES): CS(=O)(=O)N1CCC(COc2coc(CN3Cc4ccc(C(F)(F)F)cc4C3)cc2=O)CC1 [Hydrochloric acid salt (form 1), 5-((1-(methyl-sulfonyl)piperidin-4-yl)methoxy)-2-((5-(trifluoromethyl)isoindolin-2-yl)methyl)-4H-pyran-4-one]
- Form after 2 weeks [1]: No change

Structure (SMILES): CS(=O)(=O)N1CCC(COc2coc(CN3Cc4ccc(C(F)(F)F)cc4C3)cc2=O)CC1 [Maleic acid salt (form 1), 5-((1-(methyl-sulfonyl)piperidin-4-yl)methoxy)-2-((5-(trifluoromethyl)isoindolin-2-yl)methyl)-4H-pyran-4-one]
- Form after 2 weeks [1]: Form 1 + extra peaks

Structure (SMILES): CS(=O)(=O)N1CCC(COc2coc(CN3Cc4ccc(C(F)(F)F)cc4C3)cc2=O)CC1 [Methanesulfonic acid salt (form 1), 5-((1-(methyl-sulfonyl)piperidin-4-yl)methoxy)-2-((5-(trifluoromethyl)isoindolin-2-yl)methyl)-4H-pyran-4-one]
- Form after 2 weeks [1]: No change

Structure (SMILES): CS(=O)(=O)N1CCC(COc2coc(CN3Cc4ccc(C(F)(F)F)cc4C3)cc2=O)CC1 [Oxalic acid salt (form 1), 5-((1-(methyl-sulfonyl)piperidin-4-yl)methoxy)-2-((5-(trifluoromethyl)isoindolin-2-yl)methyl)-4H-pyran-4-one]
- Form after 2 weeks [1]: Form 1 + extra peaks

Structure (SMILES): CS(=O)(=O)N1CCC(COc2coc(CN3Cc4ccc(C(F)(F)F)cc4C3)cc2=O)CC1 [Oxalic acid salt (form 2), 5-((1-(methyl-sulfonyl)piperidin-4-yl)methoxy)-2-((5-(trifluoromethyl)isoindolin-2-yl)methyl)-4H-pyran-4-one]
- Form after 2 weeks [1]: No change

Structure (SMILES): CS(=O)(=O)N1CCC(COc2coc(CN3Cc4ccc(C(F)(F)F)cc4C3)cc2=O)CC1 [Oxalic acid salt (form 3), 5-((1-(methyl-sulfonyl)piperidin-4-yl)methoxy)-2-((5-(trifluoromethyl)isoindolin-2-yl)methyl)-4H-pyran-4-one]
- Form after 2 weeks [1]: Form 3 + extra peaks

Structure (SMILES): CS(=O)(=O)N1CCC(COc2coc(CN3Cc4ccc(C(F)(F)F)cc4C3)cc2=O)CC1 [Oxalic acid salt (form 4), 5-((1-(methyl-sulfonyl)piperidin-4-yl)methoxy)-2-((5-(trifluoromethyl)isoindolin-2-yl)methyl)-4H-pyran-4-one]
- Form after 2 weeks [1]: No change

Structure (SMILES): CS(=O)(=O)N1CCC(COc2coc(CN3Cc4ccc(C(F)(F)F)cc4C3)cc2=O)CC1 [p-Toluenesulfonic acid salt (form 1), 5-((1-(methylsulfonyl)-piperidin-4-yl)methoxy)-2-((5-(trifluoromethyl)isoindolin-2-yl)methyl)-4H-pyran-4-one]
- Form after 2 weeks [1]: No change
- Water activity in which the crystalline form is favoured ([2]; 5-40° C., 2-3 weeks, listed as crystalline form 1 of p-toluenesulfonic acid salt): up to 0.4

Structure (SMILES): CS(=O)(=O)N1CCC(COc2coc(CN3Cc4ccc(C(F)(F)F)cc4C3)cc2=O)CC1 [p-Toluenesulfonic acid salt (form 2), 5-((1-(methylsulfonyl)-piperidin-4-yl)methoxy)-2-((5-(trifluoromethyl)isoindolin-2-yl)methyl)-4H-pyran-4-one]
- Form after 2 weeks [1]: No change
- Crystalline transformation on drying [3]: some transformation of crystalline form 2 into crystalline form 1
- Water activity in which the crystalline form is favoured ([2]; 5-40° C., 2-3 weeks, listed as Crystalline form 2 of p-toluenesulfonic acid salt): higher than 0.5
